From patent US20250114387A1, “PHARMACEUTICAL COMPOSITION COMPRISING ENAVOGLIFLOZIN FOR PREVENTING OR TREATING OBESITY IN CANINE ANIMALS” (DAEWOONG PHARMACEUTICAL CO., LTD., priority 2022, published 2025)

Tests used:
[1] = test system: obese dogs; experiment: Clinical trial in obese dogs: serum insulin concentration (ELISA); format: in vivo; conditions: for Insulin: serum
Protocol: (§1) A total of 20 dogs were selected and divided into 4 groups with 5 dogs in each group: a normal obese control (OC); hereinafter, referred to as a control (OC)), an enavogliflozin 0.2-administered group, an enavogliflozin 0.5-administered group, and an enavogliflozin 1-administered group. The control was fed regular feed, and the enavogliflozin-administered groups were fed regular feed supplemented with enavogliflozin at doses of 0.2, 0.5, or 1 mg/kg, respectively. The feed was supplemented with enavogliflozin once a day for 8 weeks and given orally.
Serum insulin concentrations were measured 2, 4, 6, 8, and 10 weeks after the start of enavogliflozin administration using a Quantikine Canine Insulin ELISA kit (Catalog no. DINS00, R&D Systems, Minneapolis, MN, USA) according to the manufacturer's protocol. Urine biochemical parameters were evaluated using urine test strips 2, 4, 6, and 10 weeks after the start of enavogliflozin administration, and urinary glucose (GLU) excretion was measured using UriSCAN® Strip (YD Diagnostics Corp., Yong-in, Korea).

[2] = test system: obese dogs; experiment: Clinical trial in obese dogs: feed intake; format: in vivo; conditions: for feed intake compared to the control (OC): during the 10-week experimental period
Protocol: as §1, with “The feed was supplemented with enavogliflozin once a day for 8 weeks and given orally.” left out

[3] = test system: obese dogs; experiment: Clinical trial in obese dogs: urine test strips, urinary glucose excretion; format: in vivo
Protocol: as §1
Serum insulin concentrations were measured 2, 4, 6, 8, and 10 weeks after the start of enavogliflozin administration using a Quantikine Canine Insulin ELISA kit (Catalog no. DINS00, R&D Systems, Minneapolis, MN, USA) according to the manufacturer's protocol. […]

[4] = Non-clinical toxicity test: 13 weeks repeated oral administration, changes in body weight; format: in vivo, beagles
Protocol: Changes in body weight were confirmed after administering enavogliflozin to four female and four male 6-month-old normal beagles at 0 (control, gelatin capsule), 1, 3, and 6 mg/kg/day for 13 weeks. The above amounts of enavogliflozin were charged in a gelatin capsule and administered daily.

[5] = 0.2 mg/kg once a day oral for 8 weeks, 10 weeks
[6] = 0.2 mg/kg once a day oral, 2 weeks
[7] = 0.2 mg/kg once a day oral, 4 weeks
[8] = 0.2 mg/kg once a day oral, 6 weeks
[9] = 0.2 mg/kg once a day oral, 8 weeks
[10] = 0.5 mg/kg once a day oral for 8 weeks, 10 weeks
[11] = 0.5 mg/kg once a day oral, 2 weeks
[12] = 0.5 mg/kg once a day oral, 4 weeks
[13] = 0.5 mg/kg once a day oral, 6 weeks
[14] = 0.5 mg/kg once a day oral, 8 weeks
[15] = 1 mg/kg once a day oral for 8 weeks, 10 weeks
[16] = 1 mg/kg once a day oral, 2 weeks
[17] = 1 mg/kg once a day oral, 4 weeks
[18] = 1 mg/kg once a day oral, 6 weeks
[19] = 1 mg/kg once a day oral, 8 weeks

## OC[C@H]1O[C@@H](c2cc(Cc3ccc(C4CC4)cc3)c(Cl)c3c2CCO3)[C@H](O)[C@@H](O)[C@@H]1O [Enavogliflozin, enavogliflozin]
[1]; 0.5 mg/kg
  insulin concentration compared to the control (OC): significantly lower
[1]; all administration groups
  serum insulin concentration compared to the control (OC): decreased compared to the control (OC)
[1]; 0.2 mg/kg once a day oral for 8 weeks
  Insulin: 126.60 ± 15.45 ng/mL
[1]; 0.5 mg/kg once a day oral for 8 weeks
  Insulin: 99.82 ± 18.48 ng/mL
[1]; 1 mg/kg once a day oral for 8 weeks
  Insulin: 110.75 ± 21.96 ng/mL
[2]; 0.2 mg/kg once a day oral for 8 weeks, week 0
  Change rates of food consumption: 100.00 ± 0.00%
[2]; 0.2 mg/kg once a day oral for 8 weeks, week 2
  Change rates of food consumption: 126.52 ± 5.48 %
[2]; 0.2 mg/kg once a day oral for 8 weeks, week 4
  Change rates of food consumption: 146.64 ± 5.37 %
[2]; 0.2 mg/kg once a day oral for 8 weeks, week 6
  Change rates of food consumption: 153.71 ± 4.11 %
[2]; 0.2 mg/kg once a day oral for 8 weeks, week 8
  Change rates of food consumption: 168.32 ± 4.80 %
[2]; 0.2 mg/kg once a day oral for 8 weeks, week 10, 0.2 mg/kg
  Change rates of food consumption: 166.59 ± 4.72 %
[2]; 0.2 mg/kg once a day oral for 8 weeks, week 10, listed as enavogliflozin, 0.2 mg/kg
  Change rates of food consumption: 166.59±4.72%
[2]; 0.2 mg/kg, p<0.001
  feed intake compared to the control (OC): significantly increased
[2]; 0.5 mg/kg once a day oral for 8 weeks, week 0
  Change rates of food consumption: 100.00 ± 0.00%
[2]; 0.5 mg/kg once a day oral for 8 weeks, week 2
  Change rates of food consumption: 95.13 ± 1.67 %
[2]; 0.5 mg/kg once a day oral for 8 weeks, week 4
  Change rates of food consumption: 92.34 ± 2.10 %
[2]; 0.5 mg/kg once a day oral for 8 weeks, week 6
  Change rates of food consumption: 92.30 ± 1.60 %
[2]; 0.5 mg/kg once a day oral for 8 weeks, week 8
  Change rates of food consumption: 93.64 ± 1.67 %
[2]; 0.5 mg/kg once a day oral for 8 weeks, week 10, 0.5 mg/kg
  Change rates of food consumption: 98.47 ± 1.44%
[2]; 0.5 mg/kg once a day oral for 8 weeks, week 10, listed as enavogliflozin, 0.5 mg/kg
  Change rates of food consumption: 98.47±1.44%
[2]; 0.5 mg/kg
  feed intake compared to the control (OC): decreased
[2]; 1 mg/kg once a day oral for 8 weeks, week 0
  Change rates of food consumption: 100.00 ± 0.00%
[2]; 1 mg/kg once a day oral for 8 weeks, week 2
  Change rates of food consumption: 100.80 ± 4.20%
[2]; 1 mg/kg once a day oral for 8 weeks, week 4
  Change rates of food consumption: 116.02 ± 3.09 %
[2]; 1 mg/kg once a day oral for 8 weeks, week 6
  Change rates of food consumption: 121.84 ± 2.50 %
[2]; 1 mg/kg once a day oral for 8 weeks, week 8
  Change rates of food consumption: 121.88 ± 2.36 %
[2]; 1 mg/kg once a day oral for 8 weeks, week 10, 1 mg/kg
  Change rates of food consumption: 123.15 ± 2.45 %
[2]; 1 mg/kg once a day oral for 8 weeks, week 10, listed as enavogliflozin, 1 mg/kg
  Change rates of food consumption: 123.15±2.45%
[2]; 1 mg/kg, p<0.001
  feed intake compared to the control (OC): significantly increased
[3]; [5]
  Urine test - Glucose detection: number of dogs with grade +++, 3: 2
  Urine test - Glucose detection: number of dogs with grade +++, 4: 1
  Urine test - Glucose detection: number of dogs with grade ++, 2: 1
  Urine test - Glucose detection: number of dogs with grade +, 1: 1
  Urine test - Glucose detection: number of dogs with grade −, 0: 0
[3]; [6]
  Urine test - Glucose detection: number of dogs with grade +++, 3: 1
  Urine test - Glucose detection: number of dogs with grade +++, 4: 1
  Urine test - Glucose detection: number of dogs with grade ++, 2: 0
  Urine test - Glucose detection: number of dogs with grade +, 1: 3
  Urine test - Glucose detection: number of dogs with grade −, 0: 0
[3]; [7]
  Urine test - Glucose detection: number of dogs with grade +++, 3: 1
  Urine test - Glucose detection: number of dogs with grade +++, 4: 1
  Urine test - Glucose detection: number of dogs with grade ++, 2: 1
  Urine test - Glucose detection: number of dogs with grade +, 1: 2
  Urine test - Glucose detection: number of dogs with grade −, 0: 0
[3]; [8]
  Urine test - Glucose detection: number of dogs with grade +++, 3: 1
  Urine test - Glucose detection: number of dogs with grade +++, 4: 1
  Urine test - Glucose detection: number of dogs with grade ++, 2: 0
  Urine test - Glucose detection: number of dogs with grade +, 1: 3
  Urine test - Glucose detection: number of dogs with grade −, 0: 0
[3]; [9]
  Urine test - Glucose detection: number of dogs with grade +++, 3: 1
  Urine test - Glucose detection: number of dogs with grade +++, 4: 1
  Urine test - Glucose detection: number of dogs with grade ++, 2: 2
  Urine test - Glucose detection: number of dogs with grade +, 1: 1
  Urine test - Glucose detection: number of dogs with grade −, 0: 0
[3]; [10]
  Urine test - Glucose detection: number of dogs with grade +++, 3: 1
  Urine test - Glucose detection: number of dogs with grade +++, 4: 1
  Urine test - Glucose detection: number of dogs with grade ++, 2: 1
  Urine test - Glucose detection: number of dogs with grade +, 1: 1
  Urine test - Glucose detection: number of dogs with grade −, 0: 1
[3]; [11]
  Urine test - Glucose detection: number of dogs with grade +++, 3: 0
  Urine test - Glucose detection: number of dogs with grade +++, 4: 3
  Urine test - Glucose detection: number of dogs with grade ++, 2: 1
  Urine test - Glucose detection: number of dogs with grade +, 1: 1
  Urine test - Glucose detection: number of dogs with grade −, 0: 0
[3]; [12]
  Urine test - Glucose detection: number of dogs with grade +++, 3: 0
  Urine test - Glucose detection: number of dogs with grade +++, 4: 5
  Urine test - Glucose detection: number of dogs with grade ++, 2: 0
  Urine test - Glucose detection: number of dogs with grade +, 1: 0
  Urine test - Glucose detection: number of dogs with grade −, 0: 0
[3]; [13]
  Urine test - Glucose detection: number of dogs with grade +++, 3: 0
  Urine test - Glucose detection: number of dogs with grade +++, 4: 5
  Urine test - Glucose detection: number of dogs with grade ++, 2: 0
  Urine test - Glucose detection: number of dogs with grade +, 1: 0
  Urine test - Glucose detection: number of dogs with grade −, 0: 0
[3]; [14]
  Urine test - Glucose detection: number of dogs with grade +++, 3: 0
  Urine test - Glucose detection: number of dogs with grade +++, 4: 4
  Urine test - Glucose detection: number of dogs with grade ++, 2: 1
  Urine test - Glucose detection: number of dogs with grade +, 1: 0
  Urine test - Glucose detection: number of dogs with grade −, 0: 0
[3]; [15]
  Urine test - Glucose detection: number of dogs with grade +++, 3: 1
  Urine test - Glucose detection: number of dogs with grade +++, 4: 1
  Urine test - Glucose detection: number of dogs with grade ++, 2: 0
  Urine test - Glucose detection: number of dogs with grade +, 1: 0
  Urine test - Glucose detection: number of dogs with grade −, 0: 3
[3]; [16]
  Urine test - Glucose detection: number of dogs with grade +++, 3: 2
  Urine test - Glucose detection: number of dogs with grade +++, 4: 3
  Urine test - Glucose detection: number of dogs with grade ++, 2: 0
  Urine test - Glucose detection: number of dogs with grade +, 1: 0
  Urine test - Glucose detection: number of dogs with grade −, 0: 0
[3]; [17]
  Urine test - Glucose detection: number of dogs with grade +++, 3: 0
  Urine test - Glucose detection: number of dogs with grade +++, 4: 5
  Urine test - Glucose detection: number of dogs with grade ++, 2: 0
  Urine test - Glucose detection: number of dogs with grade +, 1: 0
  Urine test - Glucose detection: number of dogs with grade −, 0: 0
[3]; [18]
  Urine test - Glucose detection: number of dogs with grade +++, 3: 0
  Urine test - Glucose detection: number of dogs with grade +++, 4: 5
  Urine test - Glucose detection: number of dogs with grade ++, 2: 0
  Urine test - Glucose detection: number of dogs with grade +, 1: 0
  Urine test - Glucose detection: number of dogs with grade −, 0: 0
[3]; [19]
  Urine test - Glucose detection: number of dogs with grade +++, 3: 1
  Urine test - Glucose detection: number of dogs with grade +++, 4: 5
  Urine test - Glucose detection: number of dogs with grade ++, 2: 0
  Urine test - Glucose detection: number of dogs with grade +, 1: 0
  Urine test - Glucose detection: number of dogs with grade −, 0: 0
[3]; enavogliflozin-administered groups, particularly 0.2 mg/kg
  Urinary glucose (GLU) excretion: higher
[4]; normal female beagles, 1 mg/kg/day oral
  body weight decrease compared to the control: 19.6%
[4]; normal female beagles, 3 mg/kg/day oral
  body weight decrease compared to the control: 18.5%
[4]; normal female beagles, 6 mg/kg/day oral
  body weight decrease compared to the control: 33.2%
[4]; normal male beagles, 1 mg/kg/day oral
  body weight decrease compared to the control: 17.7%
[4]; normal male beagles, 3 mg/kg/day oral
  body weight decrease compared to the control: 16%
[4]; normal male beagles, 6 mg/kg/day oral
  body weight decrease compared to the control: 29.9%
